Results published in article PMC4919066 (PLoS Pathogens, 2016).
Where a name gives a salt, the structure may show the parent alone.

Experiments:
[1] = system: GCV-resistant pp28-luciferase Towne; test: GCV-resistant pp28-luciferase HCMV luciferase assay; assay type: cell-based, Human Cytomegalovirus; conditions: Human betaherpesvirus 5, read-out: Mean EC50 ± SD
Protocol: (§1) The pp28-luciferase HCMV Towne and a GCV-resistant pp28-luciferase were used. The recombinant viruses express luciferase under the control of the late CMV gene promoter, pp28. Luciferase expression is activated 48–72 hours post infection (hpi). The recombinant viruses provide a highly-sensitive reporter system which correlates with plaque reduction assay. The Towne HCMV strain (ATCC VR-977) was used for plaque reduction, quantitative reverse transcriptase PCR (qRT-PCR), and immunoprecipitation assays. Human herpes virus strains were: luciferase HSV1- KOS/Dlux/oriS [52] and clinical isolates of HSV2. The clinical isolates were provided by the clinical microbiology laboratory with no identifiers that can link to a specific subject. Murid Herpesvirus (MCMV: ATCC VR-1399) was used for infection of mouse embryonic fibroblasts (MEFs) and mice.
(§2) Human Foreskin Fibroblasts (HFFs) passage 12–16 (ATCC, CRL-2088) and mouse embryonic fibroblasts (MEFs) passage 9–14 (ATCC, CRL-1658) were grown in Dulbecco's Modified Eagle Medium (DMEM) containing 10% fetal bovine serum (FBS) (Gibco, Carlsbad, CA) in a 5% CO2 incubator at 37°C. […] Luciferase activity was measured 72 h following second cycle infection. […] After incubation at 37°C for 10 days (for HCMV), 3 days for MCMV or 2 days (for HSV), the overlay was removed and plaques were counted after crystal violet staining.

[2] = system: protein synthesis in HFFs; test: Translation inhibition assay; assay type: cell-based, human; conditions: nM concentrations, non-infected or HCMV-infected cells, 24 h
Protocol: […] HFFs were seeded in a 96-well black, clear bottom tissue culture plate. […] A protein synthesis assay kit (Cayman Chemical, Ann Arbor, Michigan) was used according to manufacturer's protocol to quantify emetine-mediated translation inhibition using a fluorescence based assay.

[3] = system: clinical isolates of HSV2; test: HSV-2 plaque assay in HFFs; assay type: cell-based; conditions: Human alphaherpesvirus 2, read-out: Mean EC50 ± SD
Protocol: as §1, §2

CC[C@H]1CN2CCc3cc(OC)c(OC)cc3[C@@H]2C[C@@H]1C[C@H]1NCCc2cc(OC)c(OC)cc21 [emetine, emetine dihydrochloride hydrate]
EC50 [1]: 38 nM
inhibition of protein synthesis [2]: did not inhibit protein synthesis
EC50 [3]: 33 nM
